Measured values from patent US20240150298A1, “ANTIBACTERIAL COMPOUNDS” (Blacksmith Medicines, Inc., priority 2021, published 2024).
In brackets after ≈: the same amount, converted by molar mass.

Experiments:
[1] = tested on: K. pneumoniae ATCC13883; assay: Bacterial susceptibility testing, MIC by broth microdilution (CLSI); format: cell-based; conditions: Klebsiella pneumoniae, ATCC13883, broth microdilution, 35° C., 18-24 h; read-out: MIC K. pneumoniae ATCC13883
Method in brief: (§1)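 Broth microdilution per CLSI in cation-adjusted Mueller-Hinton broth, inoculum 3×10^5–7×10^5 CFU/mL, 2-fold serial drug dilutions in DMSO. Incubated in ambient air at 35° C for 18-24 h. MIC taken as lowest concentration preventing visible growth (OD600 nm<0.05).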

[2] = tested on: E. coli ATCC25922; assay: as above; format: cell-based; conditions: Escherichia coli, ATCC25922, broth microdilution, 35° C., 18-24 h; read-out: MIC E. coli ATCC25922
Method in brief: as §1

[3] = tested on: P. aeruginosa 209 PAO1; assay: as above; format: cell-based; conditions: Pseudomonas aeruginosa, PAO1, broth microdilution, 35° C., 18-24 h; read-out: MIC P. aeruginosa 209 PAO1
Method in brief: as §1

[4] = tested on: P. aeruginosa ATCC27835; assay: as above; format: cell-based; conditions: Pseudomonas aeruginosa, ATCC27835, broth microdilution, 35° C., 18-24 h; read-out: MIC P. aeruginosa ATCC27835
Method in brief: as §1

[5] = target: T1, P. aeruginosa LpxC (Pseudomonas aeruginosa, UniProt P47205); assay: LpxC Binding Assay (Rapid Fire MS assay); format: biochemical
T1 sequence (P47205 1-303): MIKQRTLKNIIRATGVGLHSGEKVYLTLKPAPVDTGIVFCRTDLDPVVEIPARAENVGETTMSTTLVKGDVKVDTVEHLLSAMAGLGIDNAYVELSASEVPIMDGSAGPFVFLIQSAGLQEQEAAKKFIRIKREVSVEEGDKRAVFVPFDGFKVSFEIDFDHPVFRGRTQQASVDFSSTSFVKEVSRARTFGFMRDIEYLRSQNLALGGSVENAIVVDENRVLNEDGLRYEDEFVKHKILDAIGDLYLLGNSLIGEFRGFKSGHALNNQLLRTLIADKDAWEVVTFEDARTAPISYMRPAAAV
Procedure: (§2) IC50 values against E. coli and P. aeruginosa LpxC are determined using a Rapid Fire MS assay as previously described J. Med. Chem. 2012, 55, 1662-1670.

[6] = target: E. coli LpxC (Escherichia coli, UniProt P0A725); assay: LpxC Binding Assay (Rapid Fire MS assay); format: biochemical
Procedure: as §2

[7] = target: K. pneumoniae LpxC (Klebsiella pneumoniae subsp. pneumoniae, UniProt A6T4N9); assay: LpxC Binding Assay (Rapid Fire MS assay); format: biochemical
Sequence of K. pneumoniae LpxC (A6T4N9 whole entry): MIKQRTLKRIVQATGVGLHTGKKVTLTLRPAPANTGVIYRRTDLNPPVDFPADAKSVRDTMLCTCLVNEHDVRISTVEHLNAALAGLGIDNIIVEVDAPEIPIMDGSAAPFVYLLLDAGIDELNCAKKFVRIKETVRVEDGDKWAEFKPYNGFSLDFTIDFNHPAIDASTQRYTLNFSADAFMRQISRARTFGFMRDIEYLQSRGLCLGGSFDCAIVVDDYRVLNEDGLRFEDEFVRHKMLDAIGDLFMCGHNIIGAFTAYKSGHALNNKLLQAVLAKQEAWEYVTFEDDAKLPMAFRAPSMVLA

Sequence of E. coli LpxC (P0A725 whole entry): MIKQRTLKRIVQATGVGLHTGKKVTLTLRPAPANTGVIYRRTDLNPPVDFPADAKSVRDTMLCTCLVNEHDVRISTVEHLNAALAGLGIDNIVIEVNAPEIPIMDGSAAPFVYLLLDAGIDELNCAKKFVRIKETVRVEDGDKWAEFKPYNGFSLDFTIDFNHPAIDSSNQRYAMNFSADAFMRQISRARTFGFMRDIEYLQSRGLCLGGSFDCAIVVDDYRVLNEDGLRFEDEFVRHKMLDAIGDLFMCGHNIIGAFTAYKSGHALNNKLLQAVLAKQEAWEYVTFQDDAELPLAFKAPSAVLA

Work on C[C@H](O)c1nccn1[C@@H](/C=C(\F)c1ccc(-c2ccc(OCC(O)CN)cc2)cc1)CO (single isomer, unassigned) [Compound 30, (S,Z)-4-(4′-((R)-3-amino-2-hydroxypropoxy)-[1,1′-biphenyl]-4-yl)-4-fluoro-2-(2-((S)-1-hydroxyethyl)-1H-imidazol-1-yl)but-3-en-1-ol; or (S,Z)-4-(4′-((S)-3-amino-2-hydroxypropoxy)-[1,1′-biphenyl]-4-yl)-4-fluoro-2-(2-((S)-1-hydroxyethyl)-1H-imidazol-1-yl)but-3-en-1-ol] yielded an MIC [1] of 32 µg/mL (≈ 72.5 µM), an MIC [2] of 16 µg/mL (≈ 36.2 µM) and an MIC [3] of 8 µg/mL (≈ 18.1 µM). For the same compound, the MIC [4] was 8 µg/mL (≈ 18.1 µM), the IC50 [5] was 79.5 nM and the IC50 [6] was 5 nM. The IC50 [7] was 7.6 nM.
For C[C@H](O)c1nccn1[C@@H](/C=C(\F)c1ccc(-c2ccc(OCC(N)CO)cc2)cc1)CO (mixture of isomers) [Compound 11], the MIC [1] was 16 µg/mL (≈ 36.2 µM), the MIC [2] was 4 µg/mL (≈ 9.06 µM) and the MIC [3] was 1 µg/mL (≈ 2.26 µM). The MIC [4] was 2 µg/mL (≈ 4.53 µM), the IC50 [5] was 31.3 nM and the IC50 [6] was 2.7 nM. The IC50 [7] was 4 nM.
